Experimental findings from patent US20250163038A1, “CBL-B MODULATORS AND USES THEREOF” (Nimbus Clio, Inc., priority 2021, published 2025) are described below.

For experiment [1], the target named is Recombinant human Cbl-b (aa 36-427) (Homo sapiens, UniProt Q13191). The experiment can be described thus: Cbl-b Biochemical Assay (TR-FRET). Conditions: read-out: TR-FRET hCbl-b IC50.
In experiment [2] the test system is Jurkat (clone E6-1) cells with NFAT luciferase reporter. The experiment can be described thus: Jurkat reporter assay (NFAT Luciferase). The experiment is classed as cell-based. Conditions: Homo sapiens; Jurkat NFAT luciferase reporter cells, anti-CD3 stimulation, 6 hr; read-out: Jurkat NFAT EC50. A general note: Reporter assays use an easily measured gene product as a stand-in for the process of interest.

Experiment [3] has as its target T1, Recombinant human c-Cbl (aa 47-435) (Homo sapiens, UniProt P22681).
T1 sequence (P22681 47-435): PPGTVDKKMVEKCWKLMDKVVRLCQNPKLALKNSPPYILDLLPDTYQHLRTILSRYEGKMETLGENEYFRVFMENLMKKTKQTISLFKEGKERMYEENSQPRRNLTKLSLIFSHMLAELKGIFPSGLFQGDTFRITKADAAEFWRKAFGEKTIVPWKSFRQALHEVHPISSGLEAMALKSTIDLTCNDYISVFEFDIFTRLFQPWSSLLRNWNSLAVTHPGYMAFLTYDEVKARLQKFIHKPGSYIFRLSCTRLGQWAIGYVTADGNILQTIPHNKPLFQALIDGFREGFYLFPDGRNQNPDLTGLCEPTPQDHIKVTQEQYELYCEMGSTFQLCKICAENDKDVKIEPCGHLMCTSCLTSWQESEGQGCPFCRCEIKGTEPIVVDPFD
Put plainly: c-Cbl Biochemical Assay (TR-FRET). Conditions: hc-Cbl Biochemical Assay (TR-FRET); read-out: TR-FRET hcCbl IC50. (In TR-FRET formats the signal depends on donor and acceptor labels being close together.)

Chain of Recombinant human Cbl-b (aa 36-427) (Q13191 36-427): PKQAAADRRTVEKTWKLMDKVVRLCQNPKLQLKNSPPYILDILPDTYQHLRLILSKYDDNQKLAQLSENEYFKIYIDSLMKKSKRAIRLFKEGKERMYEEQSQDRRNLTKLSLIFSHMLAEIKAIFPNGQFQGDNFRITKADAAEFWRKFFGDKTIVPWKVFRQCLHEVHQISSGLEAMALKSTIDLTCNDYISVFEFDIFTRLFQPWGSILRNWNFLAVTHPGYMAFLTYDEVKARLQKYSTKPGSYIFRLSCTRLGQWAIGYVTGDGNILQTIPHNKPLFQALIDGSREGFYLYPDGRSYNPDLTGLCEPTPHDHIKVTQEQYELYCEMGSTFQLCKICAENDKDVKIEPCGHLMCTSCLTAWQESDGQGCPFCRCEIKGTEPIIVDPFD

Regarding `Cn1cnnc1-c1cc(F)ccc1-c1cccc(-c2nc3cc(CN[C@@H]4CCC[C@@H]4O)cc(C4CC4)c3o2)c1` [ES-6, (1S,2R)-2-(((7-Cyclopropyl-2-(4′-fluoro-2′-(4-methyl-4H-1,2,4-triazol-3-yl)-[1,1′-biphenyl]-3-yl)benzo[d]oxazol-5-yl)methyl)amino)cyclopentan-1-ol], the half-inhibitory concentration (IC50) in experiment [1] and in experiment [3] was < 200 nM in each case. In experiment [2], the EC50 (commonly the concentration that produces a half-maximal response) was < 200 nM.
On to `Cn1cnnc1-c1cc(F)ccc1-c1cccc(-c2nc3cc(CN[C@@H]4CCC[C@@H]4O)ccc3s2)c1` [ET-8, (1S,2R)-2-(((2-(4′-Fluoro-2′-(4-methyl-4H-1,2,4-triazol-3-yl)-[1,1′-biphenyl]-3-yl)benzo[d]thiazol-5-yl)methyl)amino)cyclopentan-1-ol], for which the IC50 in experiment [1] and in experiment [3] was < 200 nM throughout. Also, in experiment [2], the 50% effective concentration (EC50) is 200 to 1000 nM.
On to `Cn1cnnc1-c1cc(F)ccc1-c1cccc(-c2nc3cc(CNC[C@H]4CCCO4)cc(C(F)(F)F)c3o2)c1` [EU-2, (R)-1-(2-(4′-Fluoro-2′-(4-methyl-4H-1,2,4-triazol-3-yl)-[1,1′-biphenyl]-3-yl)-7-(trifluoromethyl)benzo[d]oxazol-5-yl)-N-((tetrahydrofuran-2-yl)methyl)methanamine], for which the IC50 in experiment [1] and in experiment [3] was < 200 nM throughout. For the same compound, the EC50 in experiment [2] was < 200 nM.
For `Cn1cnnc1-c1cc(F)ccc1-c1cccc(-c2nc3cc(CN[C@@H]4CCC[C@@H]4O)cc(C(C)(C)C)c3o2)c1` [EV-9, (1S,2R)-2-(((7-(tert-Butyl)-2-(4′-fluoro-2′-(4-methyl-4H-1,2,4-triazol-3-yl)-[1,1′-biphenyl]-3-yl)benzo[d]oxazol-5-yl)methyl)amino)cyclopentan-1-ol], the IC50 in experiment [1] and in experiment [3] was < 200 nM in each case. The half-maximal effective concentration (EC50) in experiment [2] was < 200 nM.
As to `Cn1cnnc1-c1cc(F)ccc1-c1cccc(-c2nc3cc(CNCCC(F)F)cc(C(F)(F)F)c3o2)c1` [EW-2, 3,3-Difluoro-N-((2-(4′-fluoro-2′-(4-methyl-4H-1,2,4-triazol-3-yl)-[1,1′-biphenyl]-3-yl)-7-(trifluoromethyl)benzo[d]oxazol-5-yl)methyl)propan-1-amine], the IC50 in experiment [1] and in experiment [3] was < 200 nM in each case. Moreover, the concentration for a half-maximal effect (EC50) in experiment [2] was < 200 nM.
`Cn1cnnc1-c1cc(F)ccc1-c1cccc(-c2nc3cc(CO)cc(C(F)F)c3o2)c1` [EX-6, (7-(Difluoromethyl)-2-(4′-fluoro-2′-(4-methyl-4H-1,2,4-triazol-3-yl)-[1,1′-biphenyl]-3-yl)benzo[d]oxazol-5-yl)methanol]: the IC50 in experiment [1] and in experiment [3] was 200 to 1000 nM throughout. In addition, in experiment [2], the 50% effective concentration (EC50) is 1000 to 10000 nM.
As to `Cn1cnnc1-c1cc(F)ccc1-c1cccc(-c2nc3cc(CN[C@@H]4CCC[C@@H]4O)cc(C(F)F)c3o2)c1` [EY-2, (1S,2R)-2-(((7-(Difluoromethyl)-2-(4′-fluoro-2′-(4-methyl-4H-1,2,4-triazol-3-yl)-[1,1′-biphenyl]-3-yl)benzo[d]oxazol-5-yl)methyl)amino)cyclopentan-1-ol], the IC50 in experiment [1] and in experiment [3] was < 200 nM throughout. The EC50 in experiment [2] is < 200 nM.
Regarding `COCCN(Cc1cc(C(F)(F)F)c2oc(-c3cccc(-c4ccc(F)cc4-c4nncn4C)c3)nc2c1)CC(C)(C)O` [EZ-3], the IC50 (in general, the midpoint of a concentration-inhibition curve) in experiment [1] is < 200 nM; in experiment [3] it was 200 to 1000 nM. For the same compound, the EC50 in experiment [2] fell in the range of 1000 to 10000 nM.
For `Cn1cnnc1-c1ccccc1-c1cccc(-c2nc3cc(CN[C@@H]4CCC[C@H]4O)cc(C(F)(F)F)c3o2)c1` [Example N-1, (1R,2R)-2-(((2-(2′-(4-Methyl-4H-1,2,4-triazol-3-yl)-[1,1′-biphenyl]-3-yl)-7-(trifluoromethyl)benzo[d]oxazol-5-yl)methyl)amino)cyclopentan-1-ol], in that order: < 200 nM, 1000 to 10000 nM and 1000 to 10000 nM.
